Test results reported in US20230406883A1, “COMPOUNDS AND THEIR USE IN TREATMENT OF TACHYKININ RECEPTOR MEDIATED DISORDERS” (Embark Biotech ApS, priority 2020, published 2023).
Numbered stars: 1 amine (or outer) side, 2 acyl side, 3 side chain; on linkers, the order of the positions; unused ones are H or OH. Square brackets hold non-standard residues; d marks the D form. Side chains are listed from the residue outwards. Peptide text beside a SMILES is read from it. * marks the point of attachment. X1 = O=C(O)CCCCCCCCCCCCCCCCC(=O)N[C@@H](CCC(=O)NCCCNCCCCNCCCN*)C(=O)O; C18 diacid = O=C(O)CCCCCCCCCCCCCCCCC(=O)*; γGlu = O=C(O)[C@H](CCC(=O)[*:2])N[*:1]; εLys = N[C@@H](CCCCN[*:1])C(=O)[*:2]; NMeL = CN[C@@H](CC(C)C)C(=O)O; Suc = O=C(CCC(=O)[*:2])[*:1]; Nle = CCCC[C@H](N)C(=O)O

What was measured:
[1] = in vivo; design: species or system mice; conditions: mouse
Protocol: Pharmacokinetics: To evaluate the in vivo half-life of individual peptide analogues we used wild type lean mice at around 10 weeks of age injected once with a peptide analogue. For each sample time point 3-4 mice were used and blood was drawn from the submandibular vein at indicated time points following injection. Prior to injection mice were given ad libitum access to standard chow diet. Mice were subcutaneously injected with 0.5 mg/kg peptide analogue in a volume of 2 ml/kg. The amount of peptide analogue and metabolite(s) present in blood samples were measured by TF-LC-MS and MetID-LC-MS, respectively. Sample preparation: One volume of plasma is precipitated with three volumes of ethanol (with internal standard). The mixture is centrifuged at 13000 g for 20 min. One volume of supernatant is diluted with two volumes of Milli-Q water (1% formic acid). Calibration curve: peptide analogue was spiked into blank mouse plasma. Range: 0.5 to 2000 nM (linear 1/x2).

[2] = Energy expenditure screening by indirect calorimetry in diet-induced obese mice; type: in vivo; conditions: DIO mice, 0.5 mg/kg s.c., increase over vehicle
Protocol: Indirect calorimetry was used to evaluate the ability of individual peptide analogues to dose-dependently increase energy expenditure (EE) we used metabolic cages and indirect calorimetry measured by the Promethion system. To this end, oxygen consumption was used as a surrogate measure for EE. Substrate preference (fat or carbohydrate) was evaluated using the respiratory exchange ratio (RER). In parallel, behavioral information such as walking distance and water and food intake were recorded.
Prior to experimentation, DIO mice were transferred to habituation cages for at least 10 days (5 days outside and at least 5 days in the Sable Systems gas analyzer module) to acclimatize. For all in vivo compound tests for EE evaluation, mice received subcutaneous injections between 2 and 4 pm.
Energy expenditure screening: After habituation, mice were subcutaneously injected with 0.5 mg/kg peptide analogue in a volume of 2 ml/kg. Mice were injected q.a.d. (quaque altera die) and received a total of two injections. EE was evaluated and increase over vehicle was calculated as percent of mean oxygen consumption over a 30-hour period after injection. Prior to injection peptide analogues were dissolved to 0.25 mg/ml in in vivo buffer.

| Plasma exposure [26 h] [1] | level at time molar at 2 h ([1]; sc, 0.5 mg/kg) [nM] | Plasma exposure [2 h] [1] [nM] | SMILES | Energy expenditure (percent of vehicle; based on 30 h average vO2) [2] |
| --- | --- | --- | --- | --- |
| BLLQ | 237 | – | CCCC[C@H](NC(=O)[C@H](CC(C)C)N(C)C(=O)CNC(=O)[C@@H](NC(=O)[C@H](Cc1ccc(O)cc1)NC(=O)[C@H](CCCCN)NC(=O)[C@H](CC(=O)O)NC(=O)CCC(=O)NCCCNCCCCNCCCNC(=O)CC[C@H](NC(=O)CCCCCCCCCCCCCCCCC(=O)O)C(=O)O)C(C)C)C(N)=O [compound 318, *Asp;Lys;Tyr;Val;Gly;NmLeu;Nle;NH2] ({X1-Suc}-DKYVG[NMeL][Nle]-NH2) | 0% of vehicle |
| 763 nM | – | 2266 | CCCC[C@H](NC(=O)[C@H](CC(C)C)N(C)C(=O)CNC(=O)[C@@H](NC(=O)[C@H](Cc1ccc(O)cc1)NC(=O)[C@H](CCCCN)NC(=O)[C@H](CC(=O)O)NC(=O)[C@@H](N)CCCCNC(=O)[C@@H](N)CCCCNC(=O)CC[C@H](NC(=O)CCCCCCCCCCCCCCCCC(=O)O)C(=O)O)C(C)C)C(N)=O [compound 321, *Asp;Lys;Tyr;Val;Gly;NmLeu;Nle;NH2] (H-K([εLys-γGlu-C18 diacid])DKYVG[NMeL][Nle]-NH2) | 5% of vehicle |
